These results are taken from USRE47689E1, “Compounds for treating spinal muscular atrophy” (PTC Therapeutics, Inc., priority 2011, dated 2019).

For the assay, the system named is full length and Δ7 SMN2 mRNAs. Nature of the assay: Endogenous SMN2 mRNA RT-qPCR splicing assay in cultured cells. It is filed as cell-based, human. The note with it: GM03813 Type 1 SMA patient fibroblasts, increasing concentrations, 24 hrs. On the procedure: The reverse transcription-quantitative PCR-based (RT-qPCR) assay is used to quantify the levels of the full length and Δ7 SMN2 mRNAs in primary cells and cell lines containing the SMN2 gene treated with a test compound.
Protocol. GM03813 SMA patient cells (5,000 cells/well) are seeded in 200 μL, of cell culture medium (DMEM plus 10% FBS) in 96-well flat-bottom plates and the plate is immediately swirled to ensure proper dispersal of cells, forming an even monolayer of cells. Cells are allowed to attach for at least 4-6 hrs. Test compounds are serially diluted 3.16-fold in 100% DMSO to generate a 7-point concentration curve. A solution of test compound (1 μL, 200× in DMSO) is added to each test well and 1 μL, DMSO is added to each control well. The plate is incubated for 24 hrs in a cell culture incubator (37° C., 5% CO2, 100% relative humidity). The cells are then lysed in Cells-To-Ct lysis buffer and the lysate is stored at −80° C.
SMN2-specific spliced products and GAPDH mRNA are identified using the following primers and probes in Table 5. Primer SMN FL Forward B (SEQ ID NO. 7) hybridizes to a nucleotide sequence in exon 7 (nucleotide 32 to nucleotide 54) and exon 8 (nucleotide 1 to nucleotide 4), primer SMN Δ7 Forward B (SEQ ID NO. 8) hybridizes to a nucleotide sequence in exon 6 (nucleotide 87 to nucleotide 111) and exon 8 (nucleotide 1 to nucleotide 3), primer SMN Reverse B (SEQ ID NO. 9) hybridizes to a nucleotide sequence in exon 8 (nucleotide 39 to nucleotide 62), probe SMN Probe B (SEQ ID NO. 10) hybridizes to a nucleotide sequence in exon 8 (nucleotide 7 to nucleotide 36). These primers and probe hybridize to nucleotide sequences common to human SMN1 and SMN2 mRNAs. Since the SMA patient cells used in Example 3 contain only the SMN2 gene, RT-qPCR can quantify only SMN2 full-length and Δ7 mRNA.
The SMN forward and reverse primers are used at final concentrations of 0.4 μM. The SMN probe is used at a final concentration of 0.15 μM. GAPDH primers are used at final concentrations of 0.1 μM and the probe at 0.075 μM. TaqMan gene expression assays were conducted at 20× concentrations with the GAPDH primers and Vic labeled probe provided as a 20× mixture. The One-Step RT-PCR kit was used as the Real-Time PCR Mix. […]
The increase of SMN2 FL and decrease in SMN2 Δ7 mRNAs relative to those in cells treated with vehicle control are determined from real-time PCR data using a modified ΔΔCt method (as described in Livak and Schmittgen, Methods, 2001, 25:402-8). The amplification efficiency E is calculated from the slope of the amplification curve for SMN2 FL, SMN2 Δ7, and GAPDH individually. The abundances of SMN2 FL, SMN2 Δ7, and GAPDH are then calculated as (1+E)^−Ct, where Ct is the threshold value for each amplicon. […]
(Real-time PCR tracks product formation cycle by cycle.)

For `CCN1CCN(c2ccc3cc(-c4cn5cc(C)nc(C)c5n4)c(=O)oc3c2)C[C@@H]1C` [Cpd 626, 3-(6,8-dimethylimidazo[1,2-a]pyrazin-2-yl)-7-[(3S)-4-ethyl-3-methylpiperazin-1-yl]-2H-chromen-2-one], the “SMN2 FL mRNA relative to vehicle” value is “progressively more SMN2 FL mRNA” and the “SMN2 Δ7 mRNA relative to vehicle” value is listed as “less SMN2 Δ7 mRNA”.

Turning to `CC(C)NCCc1ccc2cc(-c3nc4c(Cl)cccc4s3)c(=O)oc2c1` [Cpd 35, 3-(4-chloro-1,3-benzothiazol-2-yl)-7-[2-(propan-2-ylamino)ethyl]-2H-chromen-2-one], the “SMN2 FL mRNA relative to vehicle” value is recorded as “progressively more SMN2 FL mRNA” and the “SMN2 Δ7 mRNA relative to vehicle” value is reported as “less SMN2 Δ7 mRNA”.
